Experimental data published in US8541455B2, “Derivatives of 2-pyridin-2-yl-pyrazol-3(2H)-one, preparation and therapeutic use thereof as HIF activators” (Sanofi, priority 2008, dated 2013).
Where a name gives a salt, the structure may show the parent alone.

How the values were obtained:
HIF1-alpha = experiment: Measurement of the stabilization of HIF1-alpha in HEKEA cells (beta-galactosidase complementation, luminescence); format: cell-based, human; details: HEKEA_HIF1-alphaPLBL cells, 6 hours incubation under normoxia; concentration that produces 50% of the maximum response of this same compound
Description: Furthermore, a subject of the invention is also a uniform test process for the direct measurement by beta-galactosidase complementation of the amount of HIF1-alpha protein in the nucleus of cells, preferably HEK cells, after treating the said cells with one or more test compounds, which consists in: • (a) inoculating, preferably in 384-well plates, the said cells in a suitable culture medium, preferably 1% foetal calf serum (abbreviated as FCS); • (b) adding the test compound(s) at a suitable concentration in a suitable solvent to the cells previously inoculated in the said culture medium; preferably the test compounds are diluted in 0.1% FCS; • (c) incubating the said cells thus prepared in an indicator at about 37° C., advantageously for about 6 hours; • (d) lysing the cells with a lysis buffer containing a chemiluminescent substrate for beta-galactosidase; • (e) incubating in the absence of light, before reading and measuring the luminescence, which is a function of the beta-galactosidase activity.
Many tests exist describing the indirect measurement of the activity of HIF via reporter gene systems (HRE-luciferase) or via the measurement of HIF-induced proteins (for example VEGF or EPO). Furthermore, the only tests that allow direct measurement of the amount of HIF1-alpha protein in cells are tests using antibodies, for instance Western blotting comprising phases of cell extraction (total lysates or nuclear extracts) that are consuming in terms of cells and time, thus limiting the compound screening capacity. The object was thus to develop a sensitive screening test, adaptable to 384-well plates, for directly measuring the amount of HIF1-alpha protein in the nucleus of cells. This test was established in HEK cells ([…]).
The test is a cell test based on the principle of enzyme complementation, the enzyme used herein being beta-galactosidase. HEKEA cells are HEK cells stably expressing, and restricted in their nucleus, mutant beta-galactosidase (omega fragment, also known as EA) (line sold by DiscoverX). This construct makes it possible to obtain beta-galactosidase activity only when the protein comprising the Prolabel complementation fragment has migrated into the nucleus.
The protein of interest comprising the Prolabel fragment is in this case an HIF1-alpha or HIF1-alpha mutated at the two prolines 402 and 564 replaced with alanines, is C-terminal fused via molecular biology (DiscoverX vector sold by Clontech) with the small complementation peptide fragment (Prolabel or ED, about 4 kDa). The vector coding for the chimeric protein HIF1-alpha_Prolabel is then transfected into HEKEA cells to obtain stable clones (HEKEA_HIF1-alphaPLBL).
The amount of C-terminal Prolabel-“labelled” HIF1-alpha protein obtained after treating the cells to hypoxia or compounds that are potentially HIF activators is measured by adding to the cells a lysis buffer containing a chemiluminescent substrate for beta-galactosidase.
The measurement of the beta-galactosidase activity will be proportional to the amount of Prolabel and thus of HIF1-alpha that has migrated into the nucleus of the cells.
• 1.3.1 Experiment Plan • 1) Inoculation of the cells on D0 • 2) Adherence for 24 hours under normoxia • 3) Preparation and addition of the products (Biomek 2000 and FX) on D+1 • 4) Incubation under normoxia for 6 hours • 5) Reading of the plates (by luminescence)
The cells are inoculated with Multidrop in white, opaque-bottomed 384-well plates (Greiner ref 3704), in 30 μl of culture medium (1% FCS) at 10 000 cells/well (cell plate). • 1.3.3 Treatment • Preparation of the Dilution Plate (DL Plate)
The test products are prepared at 3×10^−2 M in 100% DMSO and then diluted to 3×10^−4 M in medium containing 0.1% FCS (10 μl in 990 μl of MEM). They are then deposited by hand into column 12 of a round-bottomed 96-well plate (200 μl of each compound) known as the dilution plate (dl). […]

[1] = tested on: EPO secretion by Hep3B cells; experiment: Measurement of the secretion of EPO by Hep3B hepatocytes (ELISA on supernatant); format: cell-based; details: Homo sapiens, 18 hours incubation under normoxia, EPO in supernatant, 50% of the maximum response of this same compound
Description: (§1) 2. Measurement of the Secretion of VEGF and EPO by Hep3B Hepatocytes 2.1. Object
(§2) HIF is a transcription factor involved in the adaptation of cells to hypoxia. Since the genes activated by HIF are involved in the adaptive response of cells to hypoxia and of tissues to ischaemia, the object is to identify and characterize compounds that stabilize HIF1-alpha in cells in order to amplify or mimic its beneficial effect. HIF1-alpha was identified following the analysis of the EPO gene promoter, which makes this protein one of the first markers of HIF1-alpha activation. Moreover, VEGF is also identified in the literature as one of the main markers of HIF activation. It is for this reason that measurement of these two proteins was selected for characterizing compounds that are HIF activators in Hep3B cells.
(§3) The object was thus to develop a sensitive screening test, adaptable to 96-well plates, for directly measuring the amount of VEGF and EPO in the supernatant of the Hep3B cells (cells derived from a human hepatocarcinoma) in response to the potential HIF activators.
(§4) The test is an ELISA test for measuring VEGF and EPO in the supernatant of Hep3B cells treated under hypoxia or with deferoxamine as controls or with the potential HIF activators. The test was adapted to a 96-well plate, allowing greater compound screening capacity.
(§5) • 2.3.1 Experiment Plan • 1) Inoculation of the cells on D0 • 2) Adherence for 6 hours under normoxia • 3) Preparation and addition of the products (Biomek 2000 and FX) • 4) Incubation under normoxia for 18 hours • 5) EPO and VEGF assay in the supernatant on D+1 • 2.3.2 Inoculation of the Cells
(§6) The cells are subcultured into 100 μl of culture medium (10% FCS) in black, opaque-bottomed 96-well plates (reference Costar 3916) at 30 000 cells/well, with Multidrop. • 2.3.3 Treatment of the Cells
(§7) The test products are prepared at 10^−2 M in 100% DMSO and then diluted to […] in medium containing 0.1% FCS (6 μl in 194 μl of MEM). 200 μl of each compound are deposited in column 12 of a 96-well plate. Dilution ranges from […] to 3×10^−8M are prepared with Biomek 2000 (programme: range of 9 points in series). 100 μl of MEM 0.1% FCS and Deferoxamine 5×10^−3M are added as controls to column 3 and, respectively, to wells A,B,C,D and wells E,F,G,H • DL Plate Distribution in Cell Plates
(§8) The medium of the cells inoculated the day before into 96-well plates is changed for 90 μl of medium containing 0.1% FCS and 10 μl are distributed with FX 96 from the 96-well DL plates to the cell plates.
(§9) The cell plates thus treated are placed for 18 hours in an incubator at 37° C. (ambient O2, 6% CO2).
(§10) The supernatants (80 μl) of the Hep3B cells in the 96-well plates treated with the potential HIF activators are recovered with a multichannel pipette for simultaneous assay of the VEGF and the EPO by ELISA according to the supplier's instructions (Kit EPO Mesoscale (ref K15122B-2)).
(§11) The activating activity of a compound with respect to HIF is given by the concentration that produces 50% of the maximum response of this same compound in Table IV below.

[2] = tested on: VEGF secretion by Hep3B cells; experiment: Measurement of the secretion of VEGF by Hep3B hepatocytes (ELISA on supernatant); format: cell-based; details: Homo sapiens, 18 hours incubation under normoxia, VEGF in supernatant, 50% of the maximum response of this same compound
Description: as §1, §2, §3, §4, §5, §6, §7, §8, §9, §10, §11

Compound | EC50 (HIF1-alpha) | melting point | EC50 [1] | EC50 [2]
CCN(c1ccccc1)S(=O)(=O)c1ccc(-n2[nH]c(C)c(Cc3cccc(N(C)C)c3)c2=O)nc1 [Compound 53, 6-{4-[3-(dimethylamino)benzyl]-3-methyl-5-oxo-2,5-dihydro-1H-pyrazol-1-yl}-N-ethyl-N-phenylpyridine-3-sulfonamide] | 2600 nM | 122 °C | 900 nM | 3200 nM
CCN(c1ccccc1)S(=O)(=O)c1ccc(-n2[nH]c(C)c(Cc3ccc(Cl)cc3Cl)c2=O)nc1 [Compound 14] | 3800 nM | 178 °C | 300 nM | 
CCN(c1ccccc1)S(=O)(=O)c1ccc(-n2[nH]c(C)c(CCc3ccccc3)c2=O)nc1 [Compound 74, N-ethyl-6-[3-methyl-5-oxo-4-(2-phenylethyl)-2,5-dihydro-1H-pyrazol-1-yl]-N-phenylpyridine-3-sulfonamide] | 3700 nM | 158 °C | 300 nM | 
CCN(c1ccccc1)S(=O)(=O)c1ccc(-n2[nH]c(C)c(Cc3c(F)cccc3Cl)c2=O)nc1 [Compound 20, 6-[4-(2-chloro-6-fluorobenzyl)-3-methyl-5-oxo-2,5-dihydro-1H-pyrazol-1-yl]-N-ethyl-N-phenylpyridine-3-sulfonamide] |  |  | 1000 nM | 1100 nM
CCN(c1ccccc1)S(=O)(=O)c1ccc(-n2[nH]c(C)c(Cc3ccccc3)c2=O)nc1 [Compound 42] | 4800 nM | 212 °C | 1100 nM | 1300 nM
CCN(c1ccccc1)S(=O)(=O)c1ccc(-n2[nH]c(C)c(C(C)(C)c3ccccc3)c2=O)nc1 [Compound 77, N-ethyl-6-[3-methyl-4-(1-methyl-1-phenylethyl)-5-oxo-2,5-dihydro-1H-pyrazol-1-yl]-N-phenylpyridine-3-sulfonamide] | 4800 nM | 122 °C | 1400 nM | 1300 nM
CCN(c1ccccc1)S(=O)(=O)c1ccc(-n2[nH]c(C)c(Cc3ccc(OC)cc3)c2=O)nc1 [Compound 54, N-ethyl-6-[4-(4-methoxybenzyl)-3-methyl-5-oxo-2,5-dihydro-1H-pyrazol-1-yl]-N-phenylpyridine-3-sulfonamide] | 6400 nM | 188 °C | 450 nM | 300 nM
CCN(c1ccccc1)S(=O)(=O)c1ccc(-n2[nH]c(C)c(Cc3cccc(OCCOC)c3)c2=O)nc1 [Compound 38, N-ethyl-6-{4-[3-(2-methoxyethoxy)benzyl]-3-methyl-5-oxo-2,5-dihydro-1H-pyrazol-1-yl}-N-phenylpyridine-3-sulfonamide] | 4700 nM | 126 °C | 1000 nM | 
CCN(c1ccccc1)S(=O)(=O)c1ccc(-n2[nH]c(C)c(Cc3cccnc3)c2=O)nc1 [Compound 43] | 3100 nM |  | 1500 nM | 1700 nM
CCN(c1ccccc1)S(=O)(=O)c1ccc(-n2[nH]c(C)c(Cc3ccc(S(C)(=O)=O)cc3)c2=O)nc1 [Compound 39] | 1800 nM | 224 °C | 2000 nM | 
CCN(c1ccccc1)S(=O)(=O)c1ccc(-n2[nH]c(C)c(Cc3cccc(OCCN(C)C)c3)c2=O)nc1 [Compound 56, 6-(4-{3-[2-(dimethylamino)ethoxy]benzyl}-3-methyl-5-oxo-2,5-dihydro-1H-pyrazol-1-yl)-N-ethyl-N-phenylpyridine-3-sulfonamide hydrochloride] | 2100 nM |  | 2000 nM | 2500 nM
CCN(c1ccccc1)S(=O)(=O)c1ccc(-n2[nH]c(C)c(Cc3cccc(COC)c3)c2=O)nc1 [Compound 34, N-ethyl-6-{4-[3-(methoxymethyl)benzyl]-3-methyl-5-oxo-2,5-dihydro-1H-pyrazol-1-yl}-N-phenylpyridine-3-sulfonamide] |  |  | 900 nM | 

The next lines start with results.

EC50 (HIF1-alpha) | melting point | Compound | EC50 [1] | EC50 [2]
350 nM |  | CCN(c1ccccc1)S(=O)(=O)c1ccc(-n2[nH]cc(Cc3ccccc3)c2=O)nc1 [Compound 93, 6-(4-benzyl-5-oxo-2,5-dihydro-1H-pyrazol-1-yl)-N-ethyl-N-phenylpyridine-3-sulfonamide] | 400 nM | 400 nM
7500 nM | 130 °C | CCN(c1ccccc1)S(=O)(=O)c1ccc(-n2[nH]c(C)c(Cc3ncccc3OC)c2=O)nc1 [Compound 81] | 1200 nM | 1900 nM
2500 nM |  | CC(C)(C)NS(=O)(=O)c1ccc(-n2[nH]cc(Cc3cccnc3)c2=O)nc1 [Compound 98B, N-tert-butyl-6-[5-oxo-4-(pyridin-3-ylmethyl)-2,5-dihydro-1H-pyrazol-1-yl]pyridine-3-sulfonamide hydrochloride] |  | 
1800 nM | 188 °C | CCN(c1ccccc1)S(=O)(=O)c1ccc(-n2[nH]c(C)c(CCc3ccccn3)c2=O)nc1 [Compound 85] | 2500 nM | 2500 nM
860 nM | 158 °C | CCN(c1ccccc1)S(=O)(=O)c1ccc(-n2[nH]c(C)c(CCCc3ccccc3)c2=O)nc1 [Compound 92] | 500 nM | 500 nM
880 nM | 138 °C | CCN(c1ccccc1)S(=O)(=O)c1ccc(-n2[nH]c(CC(C)C)c(Cc3ccccc3)c2=O)nc1 [Compound 88] | 300 nM | 400 nM
